Series [1] deals with T1, Interleukin-1 receptor-associated kinase 4 (Homo sapiens, UniProt Q9NWZ3).
T1 sequence (Q9NWZ3 whole entry): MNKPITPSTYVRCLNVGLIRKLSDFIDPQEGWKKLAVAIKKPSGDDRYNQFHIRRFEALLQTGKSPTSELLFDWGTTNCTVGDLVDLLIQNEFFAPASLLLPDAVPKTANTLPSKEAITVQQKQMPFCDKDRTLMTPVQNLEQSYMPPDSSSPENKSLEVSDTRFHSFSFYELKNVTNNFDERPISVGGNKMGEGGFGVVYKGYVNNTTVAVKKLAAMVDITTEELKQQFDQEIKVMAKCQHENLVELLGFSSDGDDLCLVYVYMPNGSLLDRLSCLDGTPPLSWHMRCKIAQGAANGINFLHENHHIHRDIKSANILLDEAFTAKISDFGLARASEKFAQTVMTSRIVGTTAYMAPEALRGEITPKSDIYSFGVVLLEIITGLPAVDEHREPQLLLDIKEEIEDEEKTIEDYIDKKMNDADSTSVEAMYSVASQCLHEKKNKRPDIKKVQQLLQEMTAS
Put plainly: Inhibition of IRAK4 (unknown origin) in presence of ATP by enzymatic assay.

Series [2] can be described thus: Metabolic stability in human liver microsomes assessed as intrinsic clearance. It counts as ADME, Microsome. As to conditions: read-out: CLH. For orientation: Liver microsomes are a subcellular fraction often used to study metabolism.
Series [3] can be described thus: Lipophilicity, LogD at pH 7.4 of the compound by shake flask method. It counts as physicochemical. As to conditions: buffer.
The target in series [4] is T1, Interleukin-1 receptor-associated kinase 4. In words: Inhibition of IRAK4 (unknown origin) phosphorylation by cell based assay.
Series [5] in a line: Metabolic stability in human hepatocytes assessed as intrinsic clearance measured per 10^6 cells. It is filed as ADME, cell-based, Hepatocyte. As to conditions: read-out: CLH.
A short description of series [6]: Metabolic stability in human cytosol assessed as intrinsic clearance. It is filed as ADME, subcellular.
A short description of series [7]: Efflux ratio of apparent permeability basolateral to apical side over apical to basolateral side in human Caco-2 cells measured for 360 mins by liquid scintillation counting based analysis. It is filed as ADME, cell-based.
A short description of series [8]: Apparent permeability across apical to basolateral side in human Caco-2 cells measured for 360 mins by liquid scintillation counting based analysis. It counts as ADME, cell-based. On the technique in general: Passage across Caco-2 layers is used to estimate intestinal permeability.

As a reminder, the IC50 is the concentration that inhibits the measured activity by half. For orientation: logD means lipophilicity at a set pH, counting ionised and neutral species. For the compound `CN1CCC(n2cc(Nc3nc(OC4(C)CC4)c4nc(-c5ccn(C)n5)ccc4n3)cn2)CC1`, the IC50 stood at 490 nM in series [1] and 21000 nM in series [4]. For the same compound, the microsomal CLint in series [2] amounted to 18 µL/min/mg. Also, the logD in series [3] came to 2.1.

`CN1CCC(n2cc(Nc3nc(OC4(C)CC4)c4nc(-c5cncnc5)c(F)cc4n3)cn2)CC1`: the values for the IC50 in series [1] and in series [4] were 1 nM and 29 nM, respectively. In addition, in series [5], the hepatocyte CLint was 14 µL/min/1e6 cells. Moreover, the microsomal CLint was found to be 88 µL/min/mg in series [2] and 20 µL/min/mg in series [6].

With `Cc1ncc(-c2nc3c(OC4(C)CC4)nc(Nc4cnn([C@@H]5C[C@H]6C[C@@H]5CN6C)c4)nc3cc2F)cn1`, the IC50 is 32 nM in series [1] and 1100 nM in series [4]. Besides, the microsomal CLint in series [2] came to 14 µL/min/mg. The compound also returned a logD in series [3] of 1.5.

In the case of `CC(=O)N1CCC(n2cc(Nc3nc(OC4CCOCC4)c4nc(CC#N)ccc4n3)cn2)CC1`, the IC50 is 32 nM in series [1] and 2000 nM in series [4]. Further, the microsomal CLint in series [2] was 5 µL/min/mg. Further, in series [3], the logD worked out at 1.2.

Regarding `Cc1ncncc1-c1ccc2nc(Nc3cnn(C4CCN(C)CC4)c3)nc(OC3(C)CC3)c2n1`, the IC50 in series [1] is 5 nM; in series [4], 170 nM. Moreover, the hepatocyte CLint in series [5] came to 4.7 µL/min/1e6 cells. Moreover, the microsomal CLint in series [2] came out at 44 µL/min/mg; in series [6], 4.8 µL/min/mg. The logD in series [3] is 1.9.

Regarding `Cc1nc2c(OC3(C)CC3)nc(Nc3cnn(C4CC5(C4)CN(C)C5)c3)nc2cc1F`, the IC50 came out at 3 nM in series [1] and 200 nM in series [4]. In series [5], the hepatocyte CLint amounted to 4 µL/min/1e6 cells. Further, in series [2], the microsomal CLint is under 3 µL/min/mg. In series [3], this compound showed a logD of 2.2.

As for `Cn1cc(Nc2nc(NC3COC3)c3nc(CC#N)ccc3n2)cn1`, the values for the IC50 in series [1] and in series [4] were 447 nM and 9400 nM, respectively. In series [3], this compound came in with a logD of 1.2.

Regarding `Cc1ncc(-c2nc3c(NC4(C)CC4)nc(Nc4cnn(C5CC6(C5)CN(C)C6)c4)nc3cc2F)cn1`, the figures for the IC50 in series [1] and in series [4] were 0.6 nM and 54 nM, respectively. Besides, the hepatocyte CLint in series [5] was under 1 µL/min/1e6 cells. Moreover, the microsomal CLint in series [2] amounted to 11 µL/min/mg. In series [3], this compound yielded a logD of 2.1.

Consider `CN1CCC(n2cc(Nc3nc(OC4(C)CC4)c4nc(-c5cn(C)cn5)ccc4n3)cn2)CC1`, for which the IC50 amounted to 730 nM in series [1] and 6800 nM in series [4]. The microsomal CLint in series [2] stood at 14 µL/min/mg. Also, in series [3], the logD is 1.8.

As usually defined, the efflux ratio is the permeability from basolateral to apical divided by that in the opposite direction, in the common usage. As a reminder, the Papp A→B is the apparent permeability from the apical to the basolateral side of a cell layer. Take `CC(=O)N1CCC(n2cc(Nc3nc(NC4CCOCC4)c4nc(CC#N)ccc4n3)cn2)CC1`: the IC50 in series [1] came to 12 nM; in series [4], 670 nM. Further, the efflux ratio at 6 h in series [7] turned out to be 86. The microsomal CLint in series [2] was 26 µL/min/mg. In addition, in series [8], the Papp A→B at 6 h was 4.1 ×10⁻⁶ cm/s. The logD in series [3] came out at 1.4.

Turning to `Cc1ncncc1-c1nc2c(OC3(C)CC3)nc(Nc3cnn(C4CCN(C)CC4)c3)nc2cc1F`, the IC50 was 15 nM in series [1] and 480 nM in series [4]. Further, the hepatocyte CLint in series [5] stood at 5.5 µL/min/1e6 cells. In addition, the microsomal CLint in series [2] was 53 µL/min/mg; in series [6], under 0.5 µL/min/mg. Further, the logD in series [3] was determined as 2.2.

On to `Cc1ncc(-c2ccc3nc(Nc4cnn(C5CCN(C)CC5)c4)nc(OC4(C)CC4)c3n2)c(C)n1`, for which the IC50 in series [1] is 7 nM; in series [4], 260 nM. In addition, the hepatocyte CLint in series [5] was found to be 3.4 µL/min/1e6 cells. The microsomal CLint in series [2] was determined as 23 µL/min/mg; in series [6] it was 2.2 µL/min/mg. Moreover, the logD in series [3] is 2.1.

With `CN1CCC(n2cc(Nc3nc(OC4(C)CC4)c4nc(-c5cccnc5)ccc4n3)cn2)CC1`, the IC50 in series [1] came out at 1 nM; in series [4], 120 nM. In addition, in series [2], the microsomal CLint worked out at 130 µL/min/mg. Besides, the logD in series [3] turned out to be 2.6.

`Cn1cc(Nc2nc(NC3CCOCC3)c3nc(CC#N)ccc3n2)cn1`: the IC50 in series [1] turned out to be 139 nM; in series [4], 2100 nM. For the same compound, the logD in series [3] came to 1.7.

For `Cc1ncc(-c2ccc3nc(Nc4cnn(C5CCN(C)CC5)c4)nc(OC4(C)CC4)c3n2)cn1`, the IC50 in series [1] was 1.8 nM; in series [4], 140 nM. The hepatocyte CLint in series [5] is 170 µL/min/1e6 cells. In addition, the microsomal CLint in series [2] was found to be 52 µL/min/mg; in series [6] it was 69 µL/min/mg. Further, the logD in series [3] worked out at 2.2.

`Cn1cc(Nc2nc(N[C@H]3CCOC3)c3nc(CC#N)ccc3n2)cn1`: the IC50 was 113 nM in series [1] and 2600 nM in series [4]. For the same compound, the logD in series [3] was 1.6.

Regarding `Cn1cc(Nc2nc(NC3(C)CC3)c3nc(CC#N)ccc3n2)cn1`, the IC50 in series [1] stood at 2 nM; in series [4], 110 nM. For the same compound, in series [5], the hepatocyte CLint was determined as 71 µL/min/1e6 cells. Further, the logD in series [3] amounted to 2.7.

In the case of `CN1CCC(n2cc(Nc3nc(OC4(C)CC4)c4nc(-c5ccnnc5)ccc4n3)cn2)CC1`, the IC50 in series [1] was 1 nM; in series [4] it was 130 nM. In series [5], the hepatocyte CLint amounted to 8.4 µL/min/1e6 cells. Besides, the microsomal CLint in series [2] is 48 µL/min/mg. Also, the logD in series [3] was found to be 1.7.

For `Cc1ncc(-c2nc3c(OC4(C)CC4)nc(Nc4cnn(C5CC6(C5)CN(C)C6)c4)nc3cc2F)cn1`, the IC50 turned out to be 3 nM in series [1] and 220 nM in series [4]. Also, the hepatocyte CLint in series [5] was under 1 µL/min/1e6 cells. Moreover, the microsomal CLint in series [2] is under 3 µL/min/mg. The logD in series [3] was 1.4.

As to `Cc1ncc(-c2nc3c(OC4(C)CC4)nc(Nc4cnn([C@@H]5C[C@@H]6C[C@H]5CN6C)c4)nc3cc2F)cn1`, the IC50 was 4 nM in series [1] and 310 nM in series [4]. Besides, the hepatocyte CLint in series [5] is under 1 µL/min/1e6 cells. Besides, the microsomal CLint in series [2] is 15 µL/min/mg. The logD in series [3] is 1.7.

Take `Cn1cc(Nc2nc(N[C@@H]3CCOC3)c3nc(CC#N)ccc3n2)cn1`: the IC50 in series [1] was found to be 211 nM; in series [4], 3500 nM. The compound further showed a logD in series [3] of 1.5.

As to `CN1CCC(n2cc(Nc3nc(OC4(C)CC4)c4nc(-c5cn(C)nn5)ccc4n3)cn2)CC1`, the results for the IC50 in series [1] and in series [4] were 19 nM and 510 nM, respectively. In series [5], the hepatocyte CLint is under 1 µL/min/1e6 cells. Besides, the microsomal CLint in series [2] amounted to 13 µL/min/mg. The compound also returned a logD in series [3] of 1.8.

For the compound `CN1CCC(n2cc(Nc3nc(OC4(C)CC4)c4nc(C(=O)N(C)C)ccc4n3)cn2)CC1`, the IC50 in series [1] is 13 nM; in series [4], 670 nM. In addition, in series [7], the efflux ratio at 6 h came out at 17. Further, the hepatocyte CLint in series [5] is 1.7 µL/min/1e6 cells. Further, in series [2], the microsomal CLint was under 4.5 µL/min/mg. For the same compound, the Papp A→B at 6 h in series [8] came to 1.5 ×10⁻⁶ cm/s. This compound also had a logD in series [3] of 1.2.

`CC(C)Nc1nc(Nc2cnn(C)c2)nc2ccc(CC#N)nc12`: the results for the IC50 in series [1] and in series [4] were 51 nM and 570 nM, respectively. In series [3], this compound displayed a logD of 2.4.

As to `N#CCc1ccc2nc(Nc3cnn(C4CCOCC4)c3)nc(NC3CCOCC3)c2n1`, the results for the IC50 in series [1] and in series [4] were 15 nM and 570 nM, respectively. Besides, the microsomal CLint in series [2] was 110 µL/min/mg. Moreover, in series [3], the logD stood at 1.9.

As for `Cn1cc(Nc2nc(NC3CC3)c3nc(CC#N)ccc3n2)cn1`, the IC50 in series [1] turned out to be 22 nM; in series [4], 490 nM. The logD in series [3] was 2.1.

For the compound `CN1CC2(CC(n3cc(Nc4nc(OC5(C)CC5)c5nc(C6CC6)c(F)cc5n4)cn3)C2)C1`, the IC50 in series [1] worked out at 3 nM; in series [4] it was 300 nM. For the same compound, the hepatocyte CLint in series [5] is under 1 µL/min/1e6 cells. Moreover, the microsomal CLint in series [2] is under 3 µL/min/mg. Also, the logD in series [3] was found to be 2.6.

As for `CN1CCC(n2cc(Nc3nc(OC4(C)CC4)c4nc(C5CC5)ccc4n3)cn2)CC1`, the figures for the IC50 in series [1] and in series [4] were 2 nM and 38 nM, respectively. In series [5], the hepatocyte CLint turned out to be 4.6 µL/min/1e6 cells. The microsomal CLint in series [2] came to 37 µL/min/mg. Besides, the logD in series [3] is 2.8.

(Values after ChEMBL document CHEMBL5244269, “Improving metabolic stability and removing aldehyde oxidase liability in a 5-azaquinazoline series of IRAK4 inhibitors” (Bioorg Med Chem, 2020).)
